In patent publication US4623662A, “Antiatherosclerotic ureas and thioureas” (American Cyanamid Company, priority 1985, dated 1986):
Like-named read-outs stand apart in the source and are kept apart here.

Experiments:
[1] = molecular target: T1, fatty acyl CoA: cholesterol acyl transferase (ACAT) (Rattus norvegicus, UniProt O70536); experiment: Inhibition of fatty acyl CoA:cholesterol acyl transferase (ACAT), rat adrenal enzyme; format: biochemical
T1 construct: The supernatant, containing the microsomal fraction, served as the source of the cholesterol-esterifying enzyme; from tissue; host or cells: rat adrenals, supernatant of 1,000 x g centrifugation containing the microsomal fraction
T1 sequence (O70536 1-545): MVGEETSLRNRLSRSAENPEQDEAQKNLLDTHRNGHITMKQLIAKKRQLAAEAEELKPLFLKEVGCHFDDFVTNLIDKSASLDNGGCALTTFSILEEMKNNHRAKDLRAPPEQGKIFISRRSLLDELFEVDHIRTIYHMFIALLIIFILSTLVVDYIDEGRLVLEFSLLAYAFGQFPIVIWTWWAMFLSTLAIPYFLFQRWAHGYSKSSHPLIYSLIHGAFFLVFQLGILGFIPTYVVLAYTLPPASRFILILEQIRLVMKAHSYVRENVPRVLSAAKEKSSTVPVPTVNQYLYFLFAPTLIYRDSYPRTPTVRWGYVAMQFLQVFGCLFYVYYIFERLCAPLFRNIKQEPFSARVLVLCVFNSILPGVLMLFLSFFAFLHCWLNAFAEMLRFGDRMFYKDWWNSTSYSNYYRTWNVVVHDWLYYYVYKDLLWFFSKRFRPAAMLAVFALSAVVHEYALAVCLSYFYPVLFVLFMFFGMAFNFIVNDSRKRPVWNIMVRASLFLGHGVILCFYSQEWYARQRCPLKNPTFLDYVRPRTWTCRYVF
Method: The compounds of the present invention were assayed for two types of biological activity related to their potential use as antiatherosclerotic agents. Compounds were tested in vitro for the ability to inhibit the enzyme fatty acyl CoA: cholesterol acyl transferase (ACAT) and in vivo for serum hypolipidemic activity as meausred by the ability to inhibit lipid absorption in rats.
The compounds were tested for their ability to inhibit ACAT according to the following procedure: rat adrenals were homogenized in 0.2M monobasic potassium phosphate buffer, pH 7.4, and centrifuged at 1,000 times gravity for 15 minutes at 5° C. The supernatant, containing the microsomal fraction, served as the source of the cholesterol-esterifying enzyme, fatty acyl CoA:cholesterol acyl transferase (ACAT). A mixture comprising 50 parts of adrenal supernatant, 10 parts of bovine serum albumin (50 mg/ml), 3 parts of test compound (final concentration 5.2 μg/ml), and 500 parts of buffer was preincubated at 37° C. for 10 minutes. After treatment with 20 parts of oleoyl CoA (^14 C-0.4 μCi), the mixture was incubated at 37° C. for 10 minutes. A control mixture, omitting the test compound, was prepared and treated in the same manner. The lipids from the incubation mixture was extracted into an organic solvent and separated by thin-layer chromatography. The cholesteryl ester fraction was counted in a scintillation counter. This procedure is a modification of that described by Hashimoto, et al., Life Scie., 12 (Part II), 1-12 (1973).
Compounds which produced statistically significant inhibition of the ACAT enzyme are considered to be active.
In addition to the above described test and the results given in terms of percent inhibition, various compounds of this invention were tested by the same procedure at several concentrations. The results of this test are given in Table II in terms of IC50 (μM), that concentration which produced 50% inhibition of the ACAT enzyme.

cholesterol absorption = experiment: Inhibition of cholesterol absorption in rats fed 1% cholesterol:0.5% cholic acid diet; format: in vivo, male Sprague-Dawley rats; conditions: po, 336 h, rat, 2 weeks; for response vs control in vivo at 0.001 %: dose .001% of the diet; for response vs control in vivo at 0.003 %: dose .003% of the diet; for response vs control in vivo at 0.01 %: dose .01% of the diet; for response vs control in vivo at 0.03 %: dose .03% of the diet
Method: Inhibition of cholesterol absorption was determined by feeding male Sprague-Dawley rats, weighing 150-170 g, a 1% cholesterol:0.5% cholic acid diet for 2 weeks. The diet also contained compounds being tested at a dose of 0.001, 0.003, 0.01, or 0.03% of the diet. Control rats were fed the same diet without any compound. At the end of the test, the rats were sacrificed by decapitation. Blood was collected, centrifuged at […] for 10 minutes at 4° C.; and the serum was then analyzed for cholesterol and triglycerides enzymatically by the method of Trinder, P., Analyst, 77, 321 (1952) on a Centrifichem 400 analyzer. Livers were removed, a 0.4 g sample was taken from the center of the large lobe, and the sample was subjected to saponification using 25% saturated potassium hydroxide in ethanol. The resulting neutral sterols were extracted with petroleum ether and the extract analyzed for cholesterol. The effectiveness of the compound in inhibiting cholesterol absorption was measured by the lowering of either serum cholesterol or liver cholesterol relative the values for control rats.
Compounds which produced statistically significant inhibition of cholesterol absorption are considered to be active. Liver sterol (LS) and serum sterol (SS) values are expressed as a percentage of control values.

[2] = rat adrenal ACAT, final concentration 5.2 μg/ml, read-out: % Inhibition
[3] = read-out: LS (liver sterol), percentage of control values
[4] = read-out: SS (serum sterol), percentage of control values

1-[(4-Butylphenyl)methyl]-1-[6-[(methylsulfonyl)oxy]-hexyl]-3-[(2,4,5-trimethylphenyl)methyl]urea
% Inhibition ([1]; rat adrenal ACAT, final concentration 5.2 μg/ml): 90.0%

CC(C)(C)CCN(Cc1ccc(Cl)cc1)C(=O)Nc1ccc(F)cc1F [1-(3,3-Dimethylbutyl)-1-(4-chlorobenzyl)-3-(2,4-difluorophenyl)urea]
inhibition at 5.2 µg/mL [1]: 90%

CC(C)(C)CCN(Cc1ccc(Cl)cc1)C(=O)Nc1cccc(C(F)(F)F)c1 [1-(3,3-Dimethylbutyl)-1-(4-chlorobenzyl)-3-(3-trifluoromethylphenyl)urea]
inhibition at 5.2 µg/mL [1]: 90%

CCCCc1ccc(CN(CCC(C)(C)C)C(=O)Nc2cccc(C(F)(F)F)c2)cc1 [1-(3,3-Dimethylbutyl)-1-[4-(n-butyl)benzyl]-3-(3-trifluoromethylphenyl)urea]
inhibition at 5.2 µg/mL [1]: 90%

Cc1ccc(CCN(Cc2ccc3c(c2)OCO3)C(=O)Nc2ccc(C)cc2C)cc1 [1-(3,4-Methylenedioxybenzyl)-1-[2-(4-methylphenyl)ethyl]-3-(2,4-dimethylphenyl)urea]
inhibition at 5.2 µg/mL [1, 2]: 41.2%

Cc1ccc(NC(=O)N(CCC(c2ccccc2)c2ccccc2)c2ccc3c(c2)OCO3)c(C)c1 [1-(3,4-Methylenedioxyphenyl)-1-(3,3-diphenylpropyl)-3-(2,4-dimethylphenyl)urea]
inhibition at 5.2 µg/mL [1, 2]: 87.8%

CCCCN(Cc1ccc(Br)cc1)C(=O)Nc1ccc(C)cc1C [1-(4-Bromobenzyl)-1-(n-butyl)-3-(2,4-dimethylphenyl)urea]
inhibition at 5.2 µg/mL [1, 2]: 81%

O=C(Nc1ccc(Cl)cc1C(F)(F)F)N(Cc1ccc(Cl)cc1)Cc1cccc2ccccc12 [1-(4-Chlorobenzyl)-1-(1-naphthylmethyl)-3-(2-trifluoromethyl-4-chlorophenyl)urea]
inhibition at 5.2 µg/mL [1, 2]: 83%

CCCCCOc1ccc(CN(Cc2ccc(CCCCC)cc2)C(=O)Nc2ccc(Cl)cc2C)cc1 [1-(4-n-Pentylbenzyl)-1-(4-n-pentyloxybenzyl)-3-(2-methyl-4-chlorophenyl)urea]
inhibition at 5.2 µg/mL [1, 2]: 91%

CCCCCCCN(Cc1ccc(CCC(C)CC)cc1)C(=O)Nc1ccc(F)cc1F (stereo not shown) [1-(n-Heptyl)-1-[4-(3-methylpentyl)benzyl]-3-(2,4-difluorophenyl)urea]
response vs control in vivo at 0.001 % (cholesterol absorption; [3]): 89% | response vs control in vivo at 0.001 % (cholesterol absorption; [4]): 72%

CCCCCCCN(Cc1ccc(CCC(C)CC)cc1)C(=O)Nc1c(C)cc(Cl)cc1C (stereo not shown) [1-(n-Heptyl)-1-[4-(3-methylpentyl)benzyl]-3-(4-chloro-2,6-dimethylphenyl)urea]
response vs control in vivo at 0.003 % (cholesterol absorption; [3]): 45% | response vs control in vivo at 0.003 % (cholesterol absorption; [4]): 38%

CCCCCCCN(Cc1ccc(CCCCSCC)cc1)C(=O)Nc1c(C)cc(Cl)cc1C [1-(n-Heptyl)-1-[4-(4-ethylthiobutyl)benzyl]-3-(4-chloro-2,6-dimethylphenyl)urea]
response vs control in vivo at 0.003 % (cholesterol absorption; [3]): 63% | response vs control in vivo at 0.003 % (cholesterol absorption; [4]): 57%

CCCCCCCN(Cc1ccc(CCCCSC(C)C)cc1)C(=O)Nc1c(C)cc(Cl)cc1C [1-(n-Heptyl)-1-[4-(4-isopropylthiobutyl)benzyl]-3-(4-chloro-2,6-dimethylphenyl)urea]
response vs control in vivo at 0.01 % (cholesterol absorption; [3]): 45% | response vs control in vivo at 0.01 % (cholesterol absorption; [4]): 49%

CCCCCCCN(Cc1ccc(CC2CCC2)cc1)C(=O)Nc1c(F)cc(F)cc1F [1-(n-Heptyl)-1-[4-(cyclobutylmethyl)benzyl]-3-(2,4,6-trifluorophenyl)urea]
response vs control in vivo at 0.001 % (cholesterol absorption; [3]): 66% | response vs control in vivo at 0.001 % (cholesterol absorption; [4]): 62%

CCCCCCCN(Cc1ccc(CC2CCC2)cc1)C(=O)Nc1c(C)cc(Cl)cc1C [1-(n-Heptyl)-1-[4-(cyclobutylmethyl)benzyl]-3-(4-chloro-2,6-dimethylphenyl)urea]
response vs control in vivo at 0.001 % (cholesterol absorption; [3]): 69% | response vs control in vivo at 0.001 % (cholesterol absorption; [4]): 64%

CCCCCCCN(Cc1ccc(C2CCCC2)cc1)C(=O)Nc1c(F)cc(F)cc1F [1-(n-Heptyl)-1-[4-(cyclopentyl)benzyl]-3-(2,4,6-trifluorophenyl)urea]
response vs control in vivo at 0.001 % (cholesterol absorption; [3]): 58% | response vs control in vivo at 0.001 % (cholesterol absorption; [4]): 69%

CCCCCCCN(Cc1ccc(C2CCCC2)cc1)C(=O)Nc1ccc(F)cc1F [1-(n-Heptyl)-1-[4-(cyclopentyl)benzyl]-3-(2,4-difluorophenyl)urea]
response vs control in vivo at 0.003 % (cholesterol absorption; [3]): 82% | response vs control in vivo at 0.003 % (cholesterol absorption; [4]): 80%

CCCCCCCN(Cc1ccc(C2CCCC2)cc1)C(=O)Nc1c(Cl)cc(Cl)cc1Cl [1-(n-Heptyl)-1-[4-(cyclopentyl)benzyl]-3-(4-chloro-2,6-dichlorophenyl)urea]
response vs control in vivo at 0.003 % (cholesterol absorption; [3]): 36% | response vs control in vivo at 0.003 % (cholesterol absorption; [4]): 35%

CCCCCCCN(Cc1ccc(CC2CCCC2)cc1)C(=O)Nc1c(F)cc(F)cc1F [1-(n-Heptyl)-1-[4-(cyclopentylmethyl)benzyl]-3-(2,4,6-trifluorophenyl)urea]
response vs control in vivo at 0.003 % (cholesterol absorption; [3]): 50% | response vs control in vivo at 0.003 % (cholesterol absorption; [4]): 62%

CCCCCCCN(Cc1ccc(CC2CCCC2)cc1)C(=O)Nc1c(C)cc(Cl)cc1C [1-(n-Heptyl)-1-[4-(cyclopentylmethyl)benzyl]-3-(4-chloro-2,6-dimethylphenyl)urea]
response vs control in vivo at 0.003 % (cholesterol absorption; [3]): 53% | response vs control in vivo at 0.003 % (cholesterol absorption; [4]): 45%

CCCCCCCN(Cc1ccc(CCCC(C)C)cc1)C(=O)Nc1c(F)cc(F)cc1F [1-(n-Heptyl)-1-[4-(isohexyl)benzyl]-3-(2,4,6-trifluorophenyl)urea]
response vs control in vivo at 0.001 % (cholesterol absorption; [3]): 78% | response vs control in vivo at 0.001 % (cholesterol absorption; [4]): 77%

CCCCCCCN(Cc1ccc(CCCC(C)C)cc1)C(=O)Nc1ccc(F)cc1F [1-(n-Heptyl)-1-[4-(isohexyl)benzyl]-3-(2,4-difluorophenyl)urea]
response vs control in vivo at 0.003 % (cholesterol absorption; [3]): 53% | response vs control in vivo at 0.003 % (cholesterol absorption; [4]): 45%

CCCCCCCN(Cc1ccc(CCCC(C)C)cc1)C(=O)Nc1c(C)cc(Cl)cc1C [1-(n-Heptyl)-1-[4-(isohexyl)benzyl]-3-(4-chloro-2,6-dimethylphenyl)urea]
response vs control in vivo at 0.001 % (cholesterol absorption; [3]): 73% | response vs control in vivo at 0.001 % (cholesterol absorption; [4]): 64%

CCCCCCCN(Cc1ccc(OCCC(C)C)cc1)C(=O)Nc1ccc(F)cc1F [1-(n-Heptyl)-1-[4-(isopentyloxy)benzyl]-3-(2,4-difluorophenyl)urea]
response vs control in vivo at 0.001 % (cholesterol absorption; [3]): 61% | response vs control in vivo at 0.001 % (cholesterol absorption; [4]): 69%

CCCCCCCN(Cc1ccc(OCCC(C)C)cc1)C(=O)Nc1c(C)cc(Cl)cc1C [1-(n-Heptyl)-1-[4-(isopentyloxy)benzyl]-3-(4-chloro-2,6-dimethylphenyl)urea]
response vs control in vivo at 0.001 % (cholesterol absorption; [3]): 23% | response vs control in vivo at 0.001 % (cholesterol absorption; [4]): 25%

CCCCCCCN(Cc1ccc(CCCC)cc1)C(=O)Nc1ccc(C(F)(F)F)cc1 [1-(n-Heptyl)-1-[4-(n-butyl)benzyl]-3-(4-trifluoromethylphenyl)urea]
response vs control in vivo at 0.03 % (cholesterol absorption; [3]): 88% | response vs control in vivo at 0.03 % (cholesterol absorption; [4]): 79%
